Test results: patent publication US7582786B2, “Synthetic catalytic free radical scavengers useful as antioxidants for prevention and therapy of disease” (Eukarion Inc., priority 1996, dated 2009)

Legend:
SJL female mice = assay: Experimental autoimmune encephalomyelitis (EAE); assay type: in vivo, mouse
Source text: EAE is an animal model of multiple sclerosis.
Mice in both groups were immunized with an encephalitogenic PLP peptide in complete Freund's adjuvant subcutaneously, followed by Petrussis Toxin (IV). Petrussis toxin was repeated on day 3 post immunization.

[1] = Catalase activity, conversion of H2O2 to oxygen, polarographic oxygen electrode (Example 2); assay type: biochemical
How it was run: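 Clark-type oxygen electrode at 25 °C in 50 mM sodium phosphate pH 8.1, 0.9% NaCl, with 10 μM salen-manganese complex and 10 mM H2O2. Initial rates from slope of first ~5 s, corrected for H2O2-alone rate; endpoint O2 as maximal minus pre-substrate baseline.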

dopaminergic neurons = assay: MPTP mouse model of Parkinson's disease (mazindol binding); assay type: in vivo
Protocol: Neuronal damage was induced in mice by injection with MPTP as described in Example 1. Where indicated, mice were also treated with intraperitoneal injections of C40 at 0.02 or 0.2 mg/kg. The integrity of the nigrostriatal dopaminergic neurons was assessed based upon ^3H-Mazindol binding to striatal membranes harvested from the brains of these mice about 1 week after MPTP administration.
The experiment was performed over a 7 day period. […] The animals were sacrificed after 7 days.

[2] = Peroxidase activity, H2O2-dependent oxidation of ABTS (Example 2); assay type: biochemical; details: for Peroxidase rate: 10 μM salen manganese complex, 0.2 mM H2O2; for Peroxidase: relative to C7 (C7 = 100)
How it was run: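 ABTS oxidation by salen manganese complex (10 μM) with 0.2 mM H2O2 in 50 mM sodium phosphate pH 8.1 (or pH 6.0/7.1 where indicated), 0.9% NaCl, 0.5 mM ABTS, 27±0.2 °C. Oxidized ABTS read spectrophotometrically at 740 or 500 nm and quantified from Δε740 20,300 or Δε500 3400 M^−1cm^−1.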

Rats [3] = assay: Rat model for myocardial infarct (permanent coronary occlusion); assay type: in vivo; details: intravenous bolus immediately prior to surgery, 48 hr recovery
Protocol: Rats were subjected to permanent regional cardiac ischemia by surgical occlusion of the left coronary artery. […] Sham-operated rats were subjected to surgery but the suture was not tied on the coronary artery. After a 48 hr recovery period, cardiac functional parameters were measured with a Millar transducing catheter implanted into the left ventricle.

Rats [4] = assay: Rat model for stroke, Middle Cerebral Artery occlusion; assay type: in vivo; details: single intravenous injection 3 hr after MCA occlusion
Protocol: (§1) Rats were subjected to a Middle Cerebral Artery (MCA) Occlusion model involving permanent occlusion of the parietal branch of the left middle cerebral artery and temporary (60 min) occlusion of the common carotid arteries. As indicated, rats received a single intravenous injection of vehicle (Control), or C40 at 3 hr after the MCA was occluded. Twenty-one hr after MCA occlusion, brains were removed, sectioned, and stained with the viability dye TTC (2,3,5-triphenyltetrazolium chloride). The stained sections were photographed and the volumes of infarcted (unstained) and viable (red stained) brain tissue quantitated by image analysis.
as §1, with “occlusion” for “Occlusion”

mice = assay: Mouse skin transplantation model; assay type: in vivo; details: 50 mg/kg single intraperitoneal injection at grafting
Protocol: In this model, donor and recipient mice were immunologically mismatched (ClassI/Class II MHC mismatched). A piece of skin (˜1 cm^2) from the tail of a donor mouse was transplanted onto the back of a recipient mouse. The graft was bandaged and observed daily for rejection, as indicated by loss of vascularization and necrosis. Recipient mice received vehicle (Control) or 50 mg/kg C40 as a single intraperitoneal injection at the time of grafting.

[5] = 10 μM salen manganese complex, 10 mM H2O2

Structure (SMILES)	catalase activity (in words) [1]	Catalase rate [1, 5] [μM O2/min]	Endpoint [1, 5] [maximal μM O2]	Catalase endpt. ([1]; relative to C7 (C7 = 100))	Catalase rate ([1]; relative to C7 (C7 = 100))	peroxidase activity (in words) [2]	Peroxidase rate [2] [μM ABTS oxidized/min]	Peroxidase [2]	protection, left ventricular diastolic pressure (Rats [3])	also measured
[Cl][Mn]1[O]c2ccccc2C=NCCN=Cc2ccccc2[O]1 [Compound C7]	exhibits catalase activity	148.6 ± 33.5	32.3 ± 1.2	100	100	exhibits peroxidase activity	20.0 ± 0.5	100	protection	mice developing symptomatic EAE (SJL female mice; fifth week, three weeks after treatment with C7 was stopped): six; mice developing symptomatic EAE (SJL female mice; third week following immunization, C7 1 mg/mouse IP daily, day -2 to 14): one of 10; catalase turnovers completed ([1]; 10 μM C7, ~1 mM H2O2): no more than a single turnover; toxicity, adverse health effects (dopaminergic neurons; 7 day test period): absence of adverse health effects; number of surviving dopaminergic neurons in MPTP-treated mice (dopaminergic neurons; C7 33 mg/kg i.p. pretreatment, MPTP 40 mg/kg days 1 and 2): approximately doubled; number of dopaminergic neurons, C7 alone (dopaminergic neurons; C7 alone): not adversely affected; ABTS oxidized ([2]; 10 μM C7, 1 mM H2O2, pH 8.1): up to 88 μM; peroxidase turnovers ([2]; 10 μM C7, 1 mM H2O2, pH 8.1): over 8 turnovers
COc1cccc2c1[O][Mn]([O]C(C)=O)[O]c1c(cccc1OC)C=NCCN=C2 [Compound C32]	about twice as fast as C7	295.0 ± 31.9	90.1 ± 2.6	319	188	fastest peroxidases	34.2 ± 1.5	203		turnovers before the catalase reaction ceased ([1]; 10 μM complex, 10 mM H2O2): about 16 turnovers
COc1cc(OC)c2c(c1)[O][Mn]([O]C(C)=O)[O]c1cc(OC)cc(OC)c1C=NCCN=C2 [Compound C35]	much lower catalase activity	36.0 ± 8.0	10.5 ± 3.0	41	25	undetectable activity	−0.1 ± 0.1	0		
COc1cccc2c1[O][Mn]([Cl])[O]c1c(cccc1OC)C=NCCN=C2 [Compound C40]	higher rate			272	155	fastest peroxidases	32.9 ± 0.2	203	protection	protection of dopaminergic neurons (3H-Mazindol binding to striatal membranes) (dopaminergic neurons; C40 0.02 or 0.2 mg/kg intraperitoneal): protects dopaminergic neurons; protection, infarct volume (Rats [4]): protective; graft rejection (mice): delays rejection
